Source: PubChem BioAssay (NCI)
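Test compounds were applied to cells in 96-well plates for 48 hours at 5 doses. TGI is the concentration that stops growth completely.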

Tests used:
Assay in all cases: NCI tumour cell line growth inhibition, 48 h
786-0 renal = tested on: 786-0 renal
A549 NSCLC = tested on: A549 NSCLC
ACHN renal = tested on: ACHN renal
CAKI-1 renal = tested on: CAKI-1 renal
CCRF-CEM leukemia = tested on: CCRF-CEM leukemia
COLO 205 colon = tested on: COLO 205 colon
DU-145 prostate = tested on: DU-145 prostate
EKVX NSCLC = tested on: EKVX NSCLC
HCC-2998 colon = tested on: HCC-2998 colon
HCT-116 colon = tested on: HCT-116 colon
HCT-15 colon = tested on: HCT-15 colon
HL-60(TB) leukemia = tested on: HL-60(TB) leukemia
HOP-62 NSCLC = tested on: HOP-62 NSCLC
HOP-92 NSCLC = tested on: HOP-92 NSCLC
HT29 colon = tested on: HT29 colon
IGROV1 ovarian = tested on: IGROV1 ovarian
K-562 leukemia = tested on: K-562 leukemia
KM12 colon = tested on: KM12 colon
LOX IMVI melanoma = tested on: LOX IMVI melanoma
M14 melanoma = tested on: M14 melanoma
MALME-3M melanoma = tested on: MALME-3M melanoma
MCF7 breast = tested on: MCF7 breast
MDA-MB-231 breast = tested on: MDA-MB-231 breast
MDA-MB-435 = tested on: MDA-MB-435
MDA-N = tested on: MDA-N
MOLT-4 leukemia = tested on: MOLT-4 leukemia
NCI-H226 lung = tested on: NCI-H226 lung
NCI-H460 lung = tested on: NCI-H460 lung
NCI-H522 lung = tested on: NCI-H522 lung
NCI/ADR-RES ovarian = tested on: NCI/ADR-RES ovarian
OVCAR-4 ovarian = tested on: OVCAR-4 ovarian
OVCAR-5 ovarian = tested on: OVCAR-5 ovarian
OVCAR-8 ovarian = tested on: OVCAR-8 ovarian
PC-3 prostate = tested on: PC-3 prostate
RPMI-8226 leukemia = tested on: RPMI-8226 leukemia
RXF 393 renal = tested on: RXF 393 renal
SF-268 CNS = tested on: SF-268 CNS
SF-295 CNS = tested on: SF-295 CNS
SF-539 CNS = tested on: SF-539 CNS
SK-MEL-2 melanoma = tested on: SK-MEL-2 melanoma
SK-MEL-28 melanoma = tested on: SK-MEL-28 melanoma
SK-MEL-5 melanoma = tested on: SK-MEL-5 melanoma
SK-OV-3 ovarian = tested on: SK-OV-3 ovarian
SN12C renal = tested on: SN12C renal
SNB-19 CNS = tested on: SNB-19 CNS
SNB-75 CNS = tested on: SNB-75 CNS
SR leukemia = tested on: SR leukemia
SW-620 colon = tested on: SW-620 colon
T-47D breast = tested on: T-47D breast
TK-10 renal = tested on: TK-10 renal
U251 CNS = tested on: U251 CNS
UACC-257 melanoma = tested on: UACC-257 melanoma
UACC-62 melanoma = tested on: UACC-62 melanoma
UO-31 renal = tested on: UO-31 renal
A498 renal = tested on: A498 renal

## N#C/C(=C\c1cccc(Br)c1)c1nc2ccccc2c(=O)[nH]1
786-0 renal
  TGI: > 100 µM
A549 NSCLC
  TGI: > 100 µM
ACHN renal
  TGI: > 100 µM
CAKI-1 renal
  TGI: > 100 µM
CCRF-CEM leukemia
  TGI: > 100 µM
COLO 205 colon
  TGI: > 100 µM
DU-145 prostate
  TGI: > 100 µM
EKVX NSCLC
  TGI: > 100 µM
HCC-2998 colon
  TGI: > 100 µM
HCT-116 colon
  TGI: > 100 µM
HCT-15 colon
  TGI: > 100 µM
HL-60(TB) leukemia
  TGI: > 100 µM
HOP-62 NSCLC
  TGI: 62.7 µM
HOP-92 NSCLC
  TGI: 53.2 µM
HT29 colon
  TGI: > 100 µM
IGROV1 ovarian
  TGI: > 100 µM
K-562 leukemia
  TGI: > 100 µM
KM12 colon
  TGI: > 100 µM
LOX IMVI melanoma
  TGI: > 100 µM
M14 melanoma
  TGI: > 100 µM
MALME-3M melanoma
  TGI: > 100 µM
MCF7 breast
  TGI: > 100 µM
MDA-MB-231 breast
  TGI: > 100 µM
MDA-MB-435
  TGI: > 100 µM
MDA-N
  TGI: > 100 µM
MOLT-4 leukemia
  TGI: > 100 µM
NCI-H226 lung
  TGI: > 100 µM
NCI-H460 lung
  TGI: > 100 µM
NCI-H522 lung
  TGI: > 100 µM
NCI/ADR-RES ovarian
  TGI: > 100 µM
OVCAR-4 ovarian
  TGI: > 100 µM
OVCAR-5 ovarian
  TGI: > 100 µM
OVCAR-8 ovarian
  TGI: > 100 µM
PC-3 prostate
  TGI: > 100 µM
RPMI-8226 leukemia
  TGI: > 100 µM
RXF 393 renal
  TGI: > 100 µM
SF-268 CNS
  TGI: > 100 µM
SF-295 CNS
  TGI: > 100 µM
SF-539 CNS
  TGI: > 100 µM
SK-MEL-2 melanoma
  TGI: > 100 µM
SK-MEL-28 melanoma
  TGI: > 100 µM
SK-MEL-5 melanoma
  TGI: > 100 µM
SK-OV-3 ovarian
  TGI: > 100 µM
SN12C renal
  TGI: > 100 µM
SNB-19 CNS
  TGI: > 100 µM
SNB-75 CNS
  TGI: 76 µM
SR leukemia
  TGI: > 100 µM
SW-620 colon
  TGI: > 100 µM
T-47D breast
  TGI: > 100 µM
TK-10 renal
  TGI: > 100 µM
U251 CNS
  TGI: > 100 µM
UACC-257 melanoma
  TGI: > 100 µM
UACC-62 melanoma
  TGI: > 100 µM
UO-31 renal
  TGI: > 100 µM

## CN(C)c1ccc(/C=c2/c3ccccc3n3c2cc(-c2ccccc2)[n+]3C)cc1
786-0 renal
  TGI: 1.34 µM
A498 renal
  TGI: 4.38 µM
A549 NSCLC
  TGI: 2.04 µM
ACHN renal
  TGI: 2.33 µM
CAKI-1 renal
  TGI: 7.65 µM
DU-145 prostate
  TGI: 1.92 µM
HCC-2998 colon
  TGI: > 100 µM
HCT-116 colon
  TGI: 1.32 µM
HCT-15 colon
  TGI: 3.06 µM
HL-60(TB) leukemia
  TGI: 0.123 µM
HOP-62 NSCLC
  TGI: 1.12 µM
HOP-92 NSCLC
  TGI: 1.01 µM
HT29 colon
  TGI: 0.908 µM
IGROV1 ovarian
  TGI: 0.819 µM
K-562 leukemia
  TGI: > 100 µM
KM12 colon
  TGI: 0.694 µM
M14 melanoma
  TGI: 1.44 µM
MDA-MB-435
  TGI: 1.12 µM
MDA-N
  TGI: 1.22 µM
NCI-H226 lung
  TGI: 1.07 µM
NCI/ADR-RES ovarian
  TGI: > 100 µM
OVCAR-4 ovarian
  TGI: 2.1 µM
OVCAR-5 ovarian
  TGI: 2.19 µM
OVCAR-8 ovarian
  TGI: 0.567 µM
PC-3 prostate
  TGI: 1.04 µM
RPMI-8226 leukemia
  TGI: 0.488 µM
SF-268 CNS
  TGI: 1.08 µM
SK-MEL-2 melanoma
  TGI: 0.573 µM
SK-MEL-28 melanoma
  TGI: 1.87 µM
SK-MEL-5 melanoma
  TGI: 0.38 µM
SK-OV-3 ovarian
  TGI: 2 µM
SNB-19 CNS
  TGI: 1.28 µM
SR leukemia
  TGI: 0.658 µM
TK-10 renal
  TGI: 4.53 µM
U251 CNS
  TGI: 1.15 µM
UACC-257 melanoma
  TGI: 1.88 µM
UO-31 renal
  TGI: 2.35 µM
